Earlier results in patent publication US20220152000A1, “PROLONGED RELEASE FORMULATION COMPRISING TACROLIMUS” (PHARMATHEN S.A., priority 2019, published 2022).
Converted amounts (≈) assume the structure as drawn.

How the values were obtained:
[1] = simultaneous ingestion of food versus fasted
[2] = target: T1, CYP3A4 isoenzyme (Homo sapiens, UniProt P08684); details: gut wall and liver
T1 construct: metabolized by the CYP3A4 isoenzyme in the gut wall and liver; from tissue; host or cells: gut wall and liver
T1 sequence (P08684 whole entry): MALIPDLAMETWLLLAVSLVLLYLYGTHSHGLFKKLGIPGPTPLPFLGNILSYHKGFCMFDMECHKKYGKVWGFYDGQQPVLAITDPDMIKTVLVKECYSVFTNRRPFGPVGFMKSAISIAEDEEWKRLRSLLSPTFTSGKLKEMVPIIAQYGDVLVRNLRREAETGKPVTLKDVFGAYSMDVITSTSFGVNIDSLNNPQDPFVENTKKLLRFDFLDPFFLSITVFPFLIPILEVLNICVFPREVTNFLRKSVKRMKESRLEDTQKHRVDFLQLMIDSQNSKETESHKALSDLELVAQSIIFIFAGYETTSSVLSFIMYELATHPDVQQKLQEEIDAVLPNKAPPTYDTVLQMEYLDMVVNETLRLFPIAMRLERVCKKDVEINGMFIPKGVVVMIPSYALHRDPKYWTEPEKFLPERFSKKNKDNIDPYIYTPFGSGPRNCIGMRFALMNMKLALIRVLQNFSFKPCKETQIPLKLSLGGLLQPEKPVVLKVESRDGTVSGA

Metabolism by CYP3A4 [2]: extensively metabolized
Solubility in ethanol (ethanol): 25 mg/mL (≈ 31.1 mM)
Solubility in hexane, petroleum ether (hexane, petroleum ether): sparingly soluble
Solubility in organic solvents (methanol, ethanol, acetone, ethyl acetate, diethyl ether, chloroform, dicloromethane): soluble
Solubility in water (water): insoluble
SMILES: C=CC[C@@H]1/C=C(\C)C[C@H](C)C[C@H](OC)[C@H]2O[C@@](O)(C(=O)C(=O)N3CCCC[C@H]3C(=O)O[C@H](/C(C)=C/[C@@H]3CC[C@@H](O)[C@H](OC)C3)[C@H](C)[C@@H](O)CC1=O)[C@H](C)C[C@@H]2OC [Tacrolimus]
Absorption after oral administration, effect of food [1]: negatively influenced by simultaneous ingestion of food
